Molecular target: T1, cloned human M4 receptor (human Muscarinic receptor subtype 4) (Homo sapiens, UniProt P08173)
T1 construct: purchased Perkin-Elmer RBHM4M; host or cells: Chinese hamster ovary cells (CHO) membranes
T1 sequence (P08173 1-479): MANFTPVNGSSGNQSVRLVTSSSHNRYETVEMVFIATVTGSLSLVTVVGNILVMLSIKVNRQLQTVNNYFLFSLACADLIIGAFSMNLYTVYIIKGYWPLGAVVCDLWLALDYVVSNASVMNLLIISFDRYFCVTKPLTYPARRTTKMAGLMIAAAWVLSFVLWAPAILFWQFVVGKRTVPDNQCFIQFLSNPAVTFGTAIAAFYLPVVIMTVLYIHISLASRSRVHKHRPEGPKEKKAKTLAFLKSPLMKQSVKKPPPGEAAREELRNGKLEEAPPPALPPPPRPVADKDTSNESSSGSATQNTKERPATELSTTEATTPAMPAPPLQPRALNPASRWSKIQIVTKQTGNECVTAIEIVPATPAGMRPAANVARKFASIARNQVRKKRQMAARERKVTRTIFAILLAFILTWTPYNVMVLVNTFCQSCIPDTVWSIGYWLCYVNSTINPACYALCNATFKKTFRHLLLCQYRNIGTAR
Experiment: hM4 receptor GTPγS binding
Type: biochemical
Details: CHO cell membranes expressing hM4; [35S]GTPγS binding; read-out: hM4 EC50
Experimental: hM4 Receptor GTPγS Binding
Membranes produced from Chinese hamster ovary cells (CHO) expressing the cloned human M4 receptor (human Muscarinic receptor subtype 4, gene bank access NM_000741), are obtained from Perkin-Elmer (RBHM4M). The membranes are thawed at 37° C., passed 3 times through a 23-gauge blunt-end needle, diluted in the GTPγS binding buffer (50 mM Hepes, 20 mM NaOH, 100 mM NaCl, 1 mM EDTA, 5 mM MgCl2, pH 7.4, 100 μM DTT). The EC50, IC50 and Emax of the compounds of the invention are evaluated from 10-point dose-response curves (three fold concentration range) done in 60 μl in 384-well non-specific binding surface plate (Corning). Ten microliters from the dose-response curves plate (5× concentration) are transferred to another 384 well plate containing 25 μl of the following: 10 μg of hM4 membranes, 500 μg of Flashblue beads (Perkin-Elmer) and GDP 40 μM. An additional 15 μl containing 3.3× (60,000 dpm) of GTPγ^35S (0.4 nM final) are added to the wells resulting in a total well volume of 50 μl. Basal and maximal stimulated [^35S]GTPγS binding are determined in absence and presence of 30 μM final of acetylcholine agonist. The membranes/beads mix are pre-incubated for 15 minutes at room temperature with 40 μM GDP prior to distribution in plates (20 μM final). The reversal of acetylcholine-induced stimulation (10 μM final) of [^35S]GTPγS binding is used to assay the antagonist properties (IC50) of the compounds. The plates are incubated for 60 minutes at room temperature then centrifuged at 400 rpm for 5 minutes. The radioactivity (cpm) is counted in a Trilux (Perkin-Elmer).
Values of EC50, IC50 and Emax are obtained using sigmoidal fits of a non-linear curve-fitting program (XLfit version 4.2.2 Excel add-in version 4.2.2 build 18 math 1Q version 2.1.2 build 18) of percent stimulated [^35S]GTPγS binding vs. log(molar ligand). All pEC50 and plC50 values are reported as arithmetic means ±standard error of mean of ‘n’ independent experiments.

SMILES | EC50 [nM]
CCNC(=O)N1CCC(C)(N2CCC(n3c(=O)[nH]c4ccccc43)CC2)C1 (centres unmarked) [Example 5, N-ethyl-3-methyl-3-(4-(2-oxo-2,3-dihydro-1H-benzo[d]imidazol-1-yl)piperidin-1-yl)pyrrolidine-1-carboxamide] | > 16000
Cc1ccc2c(c1)[nH]c(=O)n2C1CCN(C2(C)CCN(C(=O)OC(C)C)C2)CC1 (single isomer, unassigned) [Example 15, isopropyl 3-methyl-3-(4-(5-methyl-2-oxo-2,3-dihydro-1H-benzo[d]imidazol-1-yl)piperidin-1-yl)pyrrolidine-1-carboxylate] | > 90000
CC#CCOC(=O)N1CCC(C)(N2CCC(n3c(=O)[nH]c4ccccc43)CC2)C1 (single isomer, unassigned) [Example 34, but-2-ynyl 3-methyl-3-(4-(2-oxo-2,3-dihydro-1H-benzo[d]imidazol-1-yl)piperidin-1-yl)pyrrolidine-1-carboxylate] | 1670
Cc1ccc2c(c1)[nH]c(=O)n2C1CCN(C2(C)CCN(C(=O)OCCF)C2)CC1 (single isomer, unassigned) [Example 27, 2-fluoroethyl 3-methyl-3-(4-(5-methyl-2-oxo-2,3-dihydro-1H-benzo[d]imidazol-1-yl)piperidin-1-yl)pyrrolidine-1-carboxylate] | 3090
COC(=O)N1CCC(C)(N2CCC(N3C(=O)Cc4ccc(C)cc43)CC2)C1 (single isomer, unassigned) [Example 67, methyl 3-methyl-3-(4-(6-methyl-2-oxoindolin-1-yl)piperidin-1-yl)pyrrolidine-1-carboxylate] | 15100
COC(=O)N1CCC(C)(N2CCC(n3c(=O)[nH]c4ccccc43)CC2)C1 (racemic) [Example 2, methyl 3-methyl-3-(4-(2-oxo-2,3-dihydro-1H-benzo[d]imidazol-1-yl)piperidin-1-yl)pyrrolidine-1-carboxylate] | 2480
Cc1ccc2[nH]c(=O)n(C3CCN(C4(C)CCN(C(=O)OC(C)C)C4)CC3)c2c1 (single isomer, unassigned) [Example 39, isopropyl 3-methyl-3-(4-(6-methyl-2-oxo-2,3-dihydro-1H-benzo[d]imidazol-1-yl)piperidin-1-yl)pyrrolidine-1-carboxylate] | > 90000
C#CCOC(=O)N1CCC(C)(N2CCC(n3c(=O)[nH]c4ccc(C)cc43)CC2)C1 (single isomer, unassigned) [Example 43, prop-2-ynyl 3-methyl-3-(4-(6-methyl-2-oxo-2,3-dihydro-1H-benzo[d]imidazol-1-yl)piperidin-1-yl)pyrrolidine-1-carboxylate] | 460
CC1(N2CCC(n3c(=O)[nH]c4ccccc43)CC2)CCN(C(=O)OCCF)C1 (racemic) [Example 4, 2-fluoroethyl 3-methyl-3-(4-(2-oxo-2,3-dihydro-1H-benzo[d]imidazol-1-yl)piperidin-1-yl)pyrrolidine-1-carboxylate] | 4380
C#CCOC(=O)N1CCC(C)(N2CCC(n3c(=O)[nH]c4cc(F)ccc43)CC2)C1 (single isomer, unassigned) [Example 36, prop-2-ynyl 3-(4-(5-fluoro-2-oxo-2,3-dihydro-1H-benzo[d]imidazol-1-yl)piperidin-1-yl)-3-methylpyrrolidine-1-carboxylate] | 6830
COC(=O)N1CCC(C)(N2CCC(n3c(=O)[nH]c4cc(F)c(F)cc43)CC2)C1 (single isomer, unassigned) [Example 60, methyl 3-(4-(5,6-difluoro-2-oxo-2,3-dihydro-1H-benzo[d]imidazol-1-yl)piperidin-1-yl)-3-methylpyrrolidine-1-carboxylate] | 5080
COC(=O)N1CCC(C)(N2CCC(n3c(=O)[nH]c4cc(F)ccc43)CC2)C1 (single isomer, unassigned) [Example 23, methyl 3-(4-(5-fluoro-2-oxo-2,3-dihydro-1H-benzo[d]imidazol-1-yl)piperidin-1-yl)-3-methylpyrrolidine-1-carboxylate] | 3870
C#CCOC(=O)N1CCC(C)(N2CCC(n3c(=O)[nH]c4cc(C)ccc43)CC2)C1 (single isomer, unassigned) [Example 44, prop-2-ynyl 3-methyl-3-(4-(5-methyl-2-oxo-2,3-dihydro-1H-benzo[d]imidazol-1-yl)piperidin-1-yl)pyrrolidine-1-carboxylate] | 107
CCOC(=O)N1CCC(C)(N2CCC(n3c(=O)[nH]c4cc(F)c(F)cc43)CC2)C1 (single isomer, unassigned) [Example 58, ethyl 3-(4-(5,6-difluoro-2-oxo-2,3-dihydro-1H-benzo[d]imidazol-1-yl)piperidin-1-yl)-3-methylpyrrolidine-1-carboxylate] | 9810
CC1(N2CCC(n3c(=O)[nH]c4ccc(F)cc43)CC2)CCN(C(=O)OCCF)C1 (single isomer, unassigned) [Example 53, 2-fluoroethyl 3-(4-(6-fluoro-2-oxo-2,3-dihydro-1H-benzo[d]imidazol-1-yl)piperidin-1-yl)-3-methylpyrrolidine-1-carboxylate] | 5570
CCOC(=O)N1CCC(C)(N2CCC(n3c(=O)[nH]c4cc(F)c(F)cc43)CC2)C1 (single isomer, unassigned) [Example 57, ethyl 3-(4-(5,6-difluoro-2-oxo-2,3-dihydro-1H-benzo[d]imidazol-1-yl)piperidin-1-yl)-3-methylpyrrolidine-1-carboxylate] | 2200
Cc1ccc2[nH]c(=O)n(C3CCN(C4(C)CCN(C(=O)OCCF)C4)CC3)c2c1 (single isomer, unassigned) [Example 26, 2-fluoroethyl 3-methyl-3-(4-(6-methyl-2-oxo-2,3-dihydro-1H-benzo[d]imidazol-1-yl)piperidin-1-yl)pyrrolidine-1-carboxylate] | 857
CCOC(=O)N1CCC(C)(N2CCC(n3c(=O)[nH]c4cc(F)c(C)cc43)CC2)C1 (single isomer, unassigned) [Example 56, ethyl 3-(4-(5-fluoro-6-methyl-2-oxo-2,3-dihydro-1H-benzo[d]imidazol-1-yl)piperidin-1-yl)-3-methylpyrrolidine-1-carboxylate] | 238
Cc1ccc2[nH]c(=O)n(C3CCN(C4(C)CCN(C(=O)OCCF)C4)CC3)c2c1 (single isomer, unassigned) [Example 28, 2-fluoroethyl 3-methyl-3-(4-(6-methyl-2-oxo-2,3-dihydro-1H-benzo[d]imidazol-1-yl)piperidin-1-yl)pyrrolidine-1-carboxylate] | 8390
CC1(N2CCC(n3c(=O)[nH]c4cc(F)ccc43)CC2)CCN(C(=O)OCCF)C1 (centres unmarked) [Example 10, 2-fluoroethyl 3-(4-(5-fluoro-2-oxo-2,3-dihydro-1H-benzo[d]imidazol-1-yl)piperidin-1-yl)-3-methylpyrrolidine-1-carboxylate] | 5170
CCOC(=O)N1CCC(C)(N2CCC(n3c(=O)[nH]c4ccc(F)cc43)CC2)C1 (single isomer, unassigned) [Example 49, ethyl 3-(4-(6-fluoro-2-oxo-2,3-dihydro-1H-benzo[d]imidazol-1-yl)piperidin-1-yl)-3-methylpyrrolidine-1-carboxylate] | 9480
COC(=O)N1CCC(C)(N2CCC(n3c(=O)[nH]c4ccc(C)cc43)CC2)C1 (single isomer, unassigned) [Example 47, methyl 3-methyl-3-(4-(6-methyl-2-oxo-2,3-dihydro-1H-benzo[d]imidazol-1-yl)piperidin-1-yl)pyrrolidine-1-carboxylate] | 907

Same assay, conditions: hM4 EC50 (nM), CHO cell membranes expressing hM4; [35S]GTPγS binding

SMILES | EC50 [nM]
COC(=O)N1CCC(C)(N2CCC(N3C(=O)Cc4cc(F)c(C)cc43)CC2)C1 (single isomer, unassigned) [Example 84, methyl 3-(4-(5-fluoro-6-methyl-2-oxoindolin-1-yl)piperidin-1-yl)-3-methylpyrrolidine-1-carboxylate] | 2540

From US20090221642A1, “MUSCARINIC RECEPTOR AGONISTS, COMPOSITIONS, METHODS OF TREATMENT THEREOF, AND PROCESSES FOR PREPARATION THEREOF-176” (AstraZeneca AB, priority 2008, published 2009)
